Laboratory results taken from publication PMC5301048, “Selection and early clinical evaluation of the brain‐penetrant 11β‐hydroxysteroid dehydrogenase type 1 (11β‐HSD1) inhibitor UE2343 (Xanamem™)” (British Journal of Pharmacology, 2017).
Converted amounts (≈) assume the structure as drawn. Like-named read-outs stand apart in the source and are kept apart here.

How the values were obtained:
[1] = biological target: T1, human 11β‐HSD1 (Homo sapiens, UniProt P28845); experiment: Inhibition of human 11β-HSD1 in stably transfected HEK293 cells; format: cell-based; conditions: HEK293 cells; mean ± SD [n]; read-out: Human 11β‐HSD1 IC50 in HEK293 cells
T1 construct: a construct containing the full‐length gene coding for the human 11β‐HSD1 enzyme; expressed in transfected cells; host or cells: HEK293
Experimental: Inhibition of human 11β‐HSD1 was determined in HEK293 cells stably transfected with a construct containing the full‐length gene coding for the human 11β‐HSD1 enzyme according to the protocol described by Sooy et al., 2010.

[2] = Tissue exposure measurements in rats (plasma and brain); format: in vivo; conditions: rat; for Kp / Cmax: male, Sprague Dawley; for Cmax: plasma; for Cmax / Brain Cmax / Plasma Cmax: mean ± SD
Experimental: The circulating plasma levels and tissue distribution of compounds were determined according to the method described in WO2011135276 (Webster et al., 2011a). Animals were group‐housed, had free access to food and water and were maintained in accordance with UK Home Office regulations. The animal work was conducted under UK Home Office Project Licence no. PPL 60/3915.
Compounds were prepared in 0.9% saline containing 2% DMSO (v^.v^‐1) and 38% PEG400 (v^.v^‐1) and administered to male Sprague Dawley rats by oral gavage such that the final concentration of compound was 10 mg·kg^−1. Rats (n = 3 per time point) were killed by decapitation at 1, 4 and 6 h post dosing, and trunk blood and tissues (liver, adipose and brain) were excised. Blood samples at 0.5 and 2 h post dosing were taken by a tail nick from the 4 and 6 h rats respectively.
Compounds were triple extracted from plasma (prepared from blood by a high speed centrifugation step) and spiked with 1 μg of a standard compound using ethyl acetate. Extracts were dried under nitrogen and re‐suspended in 60% methanol/40% ammonium acetate (5 mM).
A known weight of tissue was homogenized in 3 volumes of Krebs buffer. The compound was triple extracted with ethyl acetate from the supernatant of a low speed spin spiked with […] of a standard compound. Extracts were dried under nitrogen and re‐suspended in 60% methanol/40% ammonium acetate (5 mM).
Samples from plasma and tissue were analysed by TSQ Quantum Discovery Tandem Mass Spectrometer and Surveyor Liquid Chromatogram (Thermo, Hemel‐Hempstead, UK). Then 10 μL of each sample was injected in a mobile phase consisting of 60% methanol/40% ammonium acetate (5 mM) at a flow rate of 0.5 mL·min^−1. The column used was a BDS hypersil C18, 50 × 2.1 mm with a 5 μm particle size.
Each compound was tuned with a spray voltage of 3000 V and a capillary temperature of 300°C, and values for tube lens, CID and product ions were determined. The peak area for each compound and for the internal standard was determined, and the concentration of compound ^. g^‐1 of tissue or mL^‐1 of plasma was calculated by comparison of the peak area ratio to a standard curve.

[3] = in vivo; conditions: male, Sprague Dawley, rat
Experimental: Pharmacokinetic studies were carried out at Quotient Bioresearch, UK. For both i.v. and p.o. administration, compounds were prepared in 0.9% saline containing 2% DMSO (v^.v^‐1) and 38% PEG400 (v^.v^‐1). Solutions were passed through 0.22 μm filters prior to administration. Animals were given ad libitum access to food and water throughout the study. For i.v. administration three male Sprague Dawley rats each received 1 mg·kg^−1 of compound by tail vein injection (dose volume 5 mL·kg^−1). Serial blood samples were taken from a lateral tail vein 5, 15, 30 min, 1, 2, 4, 6 and 8 h post i.v. administration, and stored in individual EDTA containers. Blood samples were flash frozen in liquid nitrogen and stored at −20°C prior to analysis. For p.o. administration, five male Sprague Dawley rats were dosed with compound at 5 mg·kg^−1 (dose volume 10 mL·kg^−1). Serial blood samples were taken from a lateral tail vein 15, 30 min, 1, 2, 4, 6 and 8 h post p.o. administration, and stored in individual EDTA containers. Blood samples were flash frozen in liquid nitrogen and stored at −20°C prior to analysis. Blood samples were thawed at ambient temperature and vortex mixed thoroughly. A representative aliquot of each blood sample was diluted 1:1 v^.v^‐1 with HPLC grade water prior to protein precipitation with acetonitrile containing diazepam internal standard (blood/water: acetonitrile ratio was 1:4 v^ v^‐1). Following vortex mixing and centrifugation (4°C, 15 min, 17 000 x g) a 100 μL aliquot of supernatant was diluted by addition of 50 μL HPLC grade water in a well of a 96‐well midi‐eppendorf plate. The plate was sealed and shaken on a plate shaker to ensure sample homogeneity. Samples were assayed against a series of matrix matched calibration curve standards by LC–MS/MS using a Sciex 3000 mass spectrometer. Pharmacokinetic parameters were derived by non‐compartmental analysis using WinNonLin pharmacokinetic software.

[4] = Plasma protein binding, human plasma; format: in vitro ADME; conditions: for Plasma protein binding (% unbound), human: mean ± SD [n]
Experimental: Plasma protein binding was determined using pooled human plasma according to the method described in WO2011135276 (Webster et al., 2011a).

[5] = Aqueous solubility at pH 7.4; format: physicochemical; conditions: thermodynamic from solid, pH 7.4, room temperature, mean ± SD [n]
Experimental: The concentration was quantified by HPLC with reference to a standard calibration curve. The solubility was calculated using the peak areas determined by integration of the peak found at the same retention time as the principal peak in the standard injection.

[6] = Pharmacokinetics in dog (i.v. and p.o.); format: in vivo; conditions: Beagle, plasma
Experimental: Pharmacokinetic studies were carried out at Charles River, UK. For both i.v. and p.o. administration, compounds were prepared in 0.9% saline containing 2% DMSO (v^.v^‐1) and 38% PEG400 (v^.v^‐1). Solutions were passed through 0.22 μm filters prior to administration. Three Beagle dogs each received a single i.v. injection of compound 4 at a dose level of 1 mg·kg^−1. Following a washout period of 1 week, each animal received a single p.o. dose of compound 4 at a dose level of 5 mg·kg^−1.
After a washout period of 6 weeks, the same three dogs each received a single i.v. injection of compound 7 at a dose level of 1 mg·kg^−1. Following a washout period of 1 week, each animal received a single p.o. dose of compound 7 at a dose level of 5 mg·kg^−1.
Plasma samples were obtained up to 24 h post dose administration, and the concentration of each test item in plasma was determined using LC–MS/MS. Pharmacokinetic parameters were derived by non‐compartmental analysis using WinNonLin pharmacokinetic software.

[7] = Microsomal stability, human liver microsomes; format: in vitro ADME; conditions: mean ± SD [n]
Experimental: (§1) Microsomal stability was determined using pooled human, rat or dog liver microsomes according to the method described in WO2011135276 (Webster et al., 2011a).

[8] = Microsomal stability, dog liver microsomes; format: in vitro ADME; conditions: mean ± SD [n]
Experimental: as §1

[9] = Microsomal stability, rat liver microsomes; format: in vitro ADME; conditions: mean ± SD [n]
Experimental: as §1

[10] = Plasma protein binding, dog plasma; format: in vitro ADME; conditions: mean ± SD [n]
[11] = Plasma protein binding, rat plasma; format: in vitro ADME; conditions: mean ± SD [n]
[12] = biological target: T2, hERG K+ channel (Homo sapiens, UniProt Q12809); experiment: hERG inhibition, IonWorks Quattro patch clamp; format: cell-based; conditions: Chinese hamster lung cells expressing hERG; mean ± SD [n]
T2 construct: Chinese hamster lung cell line stably expressing the full length hERG channel; host or cells: Chinese hamster lung cell line
Experimental: Testing was performed by Essen Instruments, Hertfordshire, UK. Compounds were tested for inhibition of the human ether a go‐go related gene (hERG) K+ channel in a Chinese hamster lung cell line stably expressing the full length hERG channel. Single cell ionic currents were measured in the perforated patch clamp configuration at room temperature using an IonWorks Quattro instrument. Eight‐point concentration–response curves were generated using threefold serial dilutions from the maximum final assay concentration. IC50 values were obtained from a four‐parameter logistic fit of the % inhibition data.

[13] = brain and plasma, po, 10 mg/kg, 10 mg·kg^−1 oral gavage, read-out: Brain : plasma ratio
[14] = po, 10 mg/kg, 10 mg·kg^−1 oral gavage

T1 sequence (P28845 whole entry): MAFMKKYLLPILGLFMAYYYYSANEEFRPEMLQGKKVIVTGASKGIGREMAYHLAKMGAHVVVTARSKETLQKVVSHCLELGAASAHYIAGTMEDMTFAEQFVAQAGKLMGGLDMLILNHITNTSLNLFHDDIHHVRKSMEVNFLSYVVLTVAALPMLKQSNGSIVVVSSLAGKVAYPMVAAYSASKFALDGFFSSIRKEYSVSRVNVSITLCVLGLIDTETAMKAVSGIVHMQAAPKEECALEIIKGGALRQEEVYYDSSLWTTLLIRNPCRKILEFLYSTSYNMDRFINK
T2 sequence (Q12809 whole entry): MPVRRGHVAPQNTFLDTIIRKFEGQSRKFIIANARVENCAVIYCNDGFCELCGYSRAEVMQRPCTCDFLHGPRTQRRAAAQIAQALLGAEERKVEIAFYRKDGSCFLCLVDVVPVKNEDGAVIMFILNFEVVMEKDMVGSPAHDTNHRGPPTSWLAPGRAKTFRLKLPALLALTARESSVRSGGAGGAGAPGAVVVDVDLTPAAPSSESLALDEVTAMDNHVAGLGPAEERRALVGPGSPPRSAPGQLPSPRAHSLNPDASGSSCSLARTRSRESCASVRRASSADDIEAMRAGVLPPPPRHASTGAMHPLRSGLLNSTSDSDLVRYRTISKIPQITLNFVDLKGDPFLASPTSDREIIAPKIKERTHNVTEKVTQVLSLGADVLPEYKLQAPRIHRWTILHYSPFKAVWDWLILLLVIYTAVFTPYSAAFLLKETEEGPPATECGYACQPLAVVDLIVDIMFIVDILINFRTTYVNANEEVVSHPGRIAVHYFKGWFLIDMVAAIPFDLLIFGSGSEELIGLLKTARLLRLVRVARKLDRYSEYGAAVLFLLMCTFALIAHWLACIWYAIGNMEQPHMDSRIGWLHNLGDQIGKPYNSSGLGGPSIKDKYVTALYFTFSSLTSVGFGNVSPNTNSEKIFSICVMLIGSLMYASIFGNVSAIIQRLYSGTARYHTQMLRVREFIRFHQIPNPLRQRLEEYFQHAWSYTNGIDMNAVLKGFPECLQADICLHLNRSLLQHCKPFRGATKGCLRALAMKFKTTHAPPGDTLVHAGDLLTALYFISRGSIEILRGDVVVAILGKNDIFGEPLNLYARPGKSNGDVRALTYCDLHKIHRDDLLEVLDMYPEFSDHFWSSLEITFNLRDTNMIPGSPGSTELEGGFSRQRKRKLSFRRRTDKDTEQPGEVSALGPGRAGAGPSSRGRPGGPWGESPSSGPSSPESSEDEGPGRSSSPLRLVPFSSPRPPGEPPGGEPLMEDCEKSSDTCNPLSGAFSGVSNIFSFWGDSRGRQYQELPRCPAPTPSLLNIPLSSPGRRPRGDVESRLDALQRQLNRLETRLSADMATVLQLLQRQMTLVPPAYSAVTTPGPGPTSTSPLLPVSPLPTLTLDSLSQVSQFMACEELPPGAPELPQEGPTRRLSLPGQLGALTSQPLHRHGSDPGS

Row | Compound | IC50 [1] [nM] | Kp [2, 13] | Cmax [2, 14] [ng/mL] | Brain Cmax ([2]; 10 mg·kg^−1 oral gavage) [ng/mL] | other results
1 | O=C(c1csc(-c2cn[nH]c2)c1)N1C2CCC1CC(O)(c1ccccc1)C2 (stereo not shown) [compound 1] | 22 ± 2 | 0.07 | 419 ± 28 | 29 ± 10 | bioavailability [3]: 23%; half-life [3]: 0.9 ± 0.1 h; clearance ([3]; iv, 1 mg/kg): 34 ± 22 mL/min/kg; Plasma protein binding (% unbound), human [4]: 10±0 % unbound; solubility ([5]; aqueous buffer): 6 µg/mL (≈ 15.8 µM)
2 | O=C(c1csc(-c2cn[nH]c2)c1)N1C2CCC1CC(O)(c1ccccn1)C2 (stereo not shown) [compound 2] | 26 ± 8 | 0.02 | 1270 ± 330 | 31 ± 12 | –
3 | O=C(c1csc(-c2cn[nH]c2)c1)N1C2CCC1CC(O)(c1ncccc1Cl)C2 (stereo not shown) [compound 3] | 12 | 0.31 | 115 ± 48 | 36 ± 12 | –
4 | O=C(c1csc(-c2cn[nH]c2)c1)N1C2CCC1CC(O)(c1cnccn1)C2 (stereo not shown) [compound 5] | 37 ± 3 | 0.03 | 589 ± 161 | 19 ± 17 | –
5 | O=C(c1csc(-c2cn[nH]c2)c1)N1C2CCC1CC(F)(c1ccccn1)C2 (stereo not shown) [compound 6] | 22 ± 10 | – | – | 108 ± 54 | Brain : plasma ratio ([2]; 10 mg·kg^−1 oral gavage): 0.27; Plasma Cmax ([2]; 10 mg·kg^−1 oral gavage): 399 ± 99 ng/mL
6 | O=C(c1csc(-c2cn[nH]c2)c1)N1C2CCC1CC(F)(c1ccccn1)C2 (stereo not shown) [compound 7] | 7 ± 4 | 0.24 | – | 374 ± 184 | Kp ([2]; brain (relative to free plasma), oral, 10 mg·kg^−1, rat, rat plasma protein binding taken into account, read-out: brain : plasma free ratio): 2.45; Plasma Cmax ([2]; 10 mg·kg^−1 oral gavage): 1526 ± 212 ng/mL; clearance ([6]; iv, i.v. 1 mg·kg^−1, mean ± SD): 8.68 ± 2.03 mL/min/kg; half-life ([6]; mean ± SD): 3.21 ± 1.61 h; Cmax ([6]; po, p.o. 5 mg·kg^−1, mean ± SD): 3100 ± 908 ng/mL; AUC ([6]; po, p.o. 5 mg·kg^−1, mean ± SD, read-out: Oral AUC(0➔∞)): 9210 ± 2000 ng·h/mL; bioavailability ([6]; po, p.o. 5 mg·kg^−1 vs i.v. 1 mg·kg^−1, mean ± SD): 90 ± 40%; Liver microsomal stability (% parent at 30 min), human [7]: 51 ± 3 [3] % parent at 30 min; Liver microsomal stability (% parent at 30 min), dog [8]: 74 ± 1 [3] % parent at 30 min; Liver microsomal stability (% parent at 30 min), rat [9]: 45 ± 5 [3] % parent at 30 min; Plasma protein binding (% unbound), human [4]: 11 ± 2 [2] % unbound; free fraction in plasma relative to the 3‐endo isomer (compound 6) ([4]; species not stated, in words): twofold greater; Plasma protein binding (% unbound), dog [10]: 11 ± 0 [1] % unbound; Plasma protein binding (% unbound), rat [11]: 10 ± 1 [2] % unbound; IC50 [12]: 3100 ± 600 nM; solubility ([5]; aqueous phosphate buffer): 6 µg/mL (≈ 15.7 µM)
7 | N#CC1(c2ccccn2)CC2CCC(C1)N2C(=O)c1csc(-c2cn[nH]c2)c1 (stereo not shown) [compound 8] | 15 | 0.03 | 291 ± 74 | 9 ± 3 | –
8 | N#CC1(c2ncccn2)CC2CCC(C1)N2C(=O)c1csc(-c2cn[nH]c2)c1 (stereo not shown) [compound 9] | 13 ± 3 | 0.07 | 230 ± 33 | 15 ± 1 | –
